From patent publication US10160747B2, “Compounds and methods for kinase modulation, and indications therefor” (Plexxikon Inc., priority 2016, dated 2018)

What was measured:
[1] = system: MOLM-14 F691L (endogenous FLT3 ITD and transfected FLT3 F691L); experiment: MOLM-14 F691L cell proliferation assay (CellTiter-Glo); type: cell-based; conditions: Homo sapiens, MOLM-14, 72 h; 3 d growth, GMean
Outline: (§1)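 Three-day proliferation at 37 °C/5% CO2 of FLT3-ITD MOLM-14 lines with D835Y or F691L mutation, seeded 1×10^4 per well. Compounds at eight points, top 1 μM final, 0.2% DMSO. ATP luminescence (CellTiter-Glo) gives IC50.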

[2] = system: MOLM-14 D835Y (endogenous FLT3 ITD and transfected FLT3 D835Y); experiment: MOLM-14 D835Y cell proliferation assay (CellTiter-Glo); type: cell-based; conditions: Homo sapiens, MOLM-14, 72 h; 3 d growth, GMean
Outline: as §1

| Compound | IC50 [1] [µM] | IC50 [2] [µM] |
| --- | --- | --- |
| Cn1cc(Nc2ncc(-c3ccc(CC(=O)Nc4ccc(C(F)(F)F)cn4)cc3)cn2)cn1 [Compound P-0109, 2-[4-[2-[(1-methylpyrazol-4-yl)amino]pyrimidin-5-yl]phenyl]-N-[5-(trifluoromethyl)-2-pyridyl]acetamide] | 0.0001 to 10 | 0.0001 to 10 |
| Cn1cc(Nc2ncc(-c3ccc(CC(=O)Nc4ccc(C(F)(F)F)nc4)c(F)c3)cn2)cn1 [Compound P-0110, 2-[2-fluoro-4-[2-[(1-methylpyrazol-4-yl)amino]pyrimidin-5-yl]phenyl]-N-[6-(trifluoromethyl)-3-pyridyl]acetamide] | 0.0001 to 10 | 0.0001 to 10 |
| CCc1cncc(NC(=O)Cc2ccc(-c3cnc(Nc4cnn(C)c4)nc3)cc2F)c1 [Compound P-0111, N-(5-ethyl-3-pyridyl)-2-[2-fluoro-4-[2-[(1-methylpyrazol-4-yl)amino]pyrimidin-5-yl]phenyl]acetamide] | 0.0001 to 10 | 0.0001 to 10 |
| Cn1cc(Nc2ncc(-c3ccc(CC(=O)Nc4cccnc4)cc3)cn2)cn1 [Compound P-0131, 2-[4-[2-[(1-methylpyrazol-4-yl)amino]pyrimidin-5-yl]phenyl]-N-(3-pyridyl)acetamide] | 0.0001 to 10 | 0.0001 to 10 |
| Cn1cc(Nc2ncc(-c3ccc(CC(=O)NCc4cccnc4)cc3)cn2)cn1 [Compound P-0132, 2-[4-[2-[(1-methylpyrazol-4-yl)amino]pyrimidin-5-yl]phenyl]-N-(3-pyridylmethyl)acetamide] | 0.0001 to 10 | 0.0001 to 10 |
| COc1cncc(NC(=O)Cc2ccc(-c3cnc(Nc4cnn(C)c4)nc3)cc2)c1 [Compound P-0133, N-(5-methoxy-3-pyridyl)-2-[4-[2-[(1-methylpyrazol-4-yl)amino]pyrimidin-5-yl]phenyl]acetamide] | 0.0001 to 10 | 0.0001 to 10 |
| Cn1cc(Nc2ncc(-c3ccc(CC(=O)Nc4ccnc(C(F)(F)F)c4)cc3)cn2)cn1 [Compound P-0134, 2-[4-[2-[(1-methylpyrazol-4-yl)amino]pyrimidin-5-yl]phenyl]-N-[2-(trifluoromethyl)-4-pyridyl]acetamide] | 0.0001 to 10 | 0.0001 to 10 |
| Cn1cc(Nc2ncc(-c3ccc(CC(=O)Nc4cc(C(F)(F)F)ncn4)cc3)cn2)cn1 [Compound P-0135, 2-[4-[2-[(1-methylpyrazol-4-yl)amino]pyrimidin-5-yl]phenyl]-N-[6-(trifluoromethyl)pyrimidin-4-yl]acetamide] | 0.0001 to 10 | 0.0001 to 10 |
| Cn1cc(Nc2ncc(-c3ccc(CC(=O)Nc4cncc(C(F)(F)F)c4)cc3)cn2)cn1 [Compound P-0136, 2-[4-[2-[(1-methylpyrazol-4-yl)amino]pyrimidin-5-yl]phenyl]-N-[5-(trifluoromethyl)-3-pyridyl]acetamide] | 0.0001 to 10 | 0.0001 to 10 |
| Cn1cc(Nc2ncc(-c3ccc(CC(=O)Nc4ccnc(C(F)(F)F)n4)cc3)cn2)cn1 [Compound P-0137, 2-[4-[2-[(1-methylpyrazol-4-yl)amino]pyrimidin-5-yl]phenyl]-N-[2-(trifluoromethyl)pyrimidin-4-yl]acetamide] | 0.0001 to 10 | 0.0001 to 10 |
| COc1ncc(NC(=O)Cc2ccc(-c3cnc(Nc4cnn(C)c4)nc3)cc2)cc1C(F)(F)F [Compound P-0138, N-[6-methoxy-5-(trifluoromethyl)-3-pyridyl]-2-[4-[2-[(1-methylpyrazol-4-yl)amino]pyrimidin-5-yl]phenyl]acetamide] | 0.0001 to 10 | 0.0001 to 10 |
| Cn1cc(Nc2ncc(-c3ccc(CC(=O)Nc4cc(C(F)(F)F)ccn4)cc3)cn2)cn1 [Compound P-0139, 2-[4-[2-[(1-methylpyrazol-4-yl)amino]pyrimidin-5-yl]phenyl]-N-[4-(trifluoromethyl)-2-pyridyl]acetamide] | 0.0001 to 10 | 0.0001 to 10 |
| Cc1ncc(NC(=O)Cc2ccc(-c3cnc(Nc4cnn(C)c4)nc3)cc2)cc1C(F)(F)F [Compound P-0140, 2-[4-[2-[(1-methylpyrazol-4-yl)amino]pyrimidin-5-yl]phenyl]-N-[6-methyl-5-(trifluoromethyl)-3-pyridyl]acetamide] | 0.0001 to 10 | 0.0001 to 10 |
| Cn1cc(Nc2ncc(-c3ccc(CC(=O)Nc4cccc(C(F)(F)F)c4)cc3)cn2)cn1 [Compound P-0141, 2-[4-[2-[(1-methylpyrazol-4-yl)amino]pyrimidin-5-yl]phenyl]-N-[3-(trifluoromethyl)phenyl]acetamide] | 0.0001 to 10 | 0.0001 to 10 |
| Cn1cc(Nc2ncc(-c3ccc(CC(=O)Nc4ccc(C(F)(F)F)c(F)c4)cc3)cn2)cn1 [Compound P-0142, N-[3-fluoro-4-(trifluoromethyl)phenyl]-2-[4-[2-[(1-methylpyrazol-4-yl)amino]pyrimidin-5-yl]phenyl]acetamide] | 0.0001 to 10 | 0.0001 to 10 |
| Cn1cc(Nc2ncc(-c3ccc(CC(=O)Nc4ccc(C(C)(C)C)nc4)cc3)cn2)cn1 [Compound P-0143, N-(6-tert-butyl-3-pyridyl)-2-[4-[2-[(1-methylpyrazol-4-yl)amino]pyrimidin-5-yl]phenyl]acetamide] | 0.0001 to 10 | 0.0001 to 10 |

| Compound | IC50 [1] [µM] | IC50 [2] [µM] |
| --- | --- | --- |
| Cn1cc(Nc2ncc(-c3ccc(CC(=O)Nc4cncc(C(C)(F)F)c4)cc3)cn2)cn1 [Compound P-0144, N-[5-(1,1-difluoroethyl)-3-pyridyl]-2-[4-[2-[(1-methylpyrazol-4-yl)amino]pyrimidin-5-yl]phenyl]acetamide] | 0.0001 to 10 | 0.0001 to 10 |
| Cn1cc(Nc2ncc(-c3ccc(CC(=O)Nc4cnc(Cl)c(C(F)(F)F)c4)cc3)cn2)cn1 [Compound P-0145, N-[6-chloro-5-(trifluoromethyl)-3-pyridyl]-2-[4-[2-[(1-methylpyrazol-4-yl)amino]pyrimidin-5-yl]phenyl]acetamide] | 0.0001 to 10 | 0.0001 to 10 |
| Cn1cc(Nc2ncc(-c3ccc(CC(=O)Nc4ccc(C(C)(C)C#N)nc4)cc3)cn2)cn1 [Compound P-0146, N-[6-(1-cyano-1-methyl-ethyl)-3-pyridyl]-2-[4-[2-[(1-methylpyrazol-4-yl)amino]pyrimidin-5-yl]phenyl]acetamide] | 0.0001 to 10 | 0.0001 to 10 |
| COc1ncc(NC(=O)Cc2ccc(-c3cnc(Nc4cn(C)cn4)nc3)cc2)cc1C(F)(F)F [Compound P-0149, N-[6-methoxy-5-(trifluoromethyl)-3-pyridyl]-2-[4-[2-[(1-methylimidazol-4-yl)amino]pyrimidin-5-yl]phenyl]acetamide] | 0.0001 to 10 | 0.0001 to 10 |
| Cc1ncc(NC(=O)Cc2ccc(-c3cnc(Nc4cn(C)cn4)nc3)cc2)cc1C(F)(F)F [Compound P-0150, 2-[4-[2-[(1-methylimidazol-4-yl)amino]pyrimidin-5-yl]phenyl]-N-[6-methyl-5-(trifluoromethyl)-3-pyridyl]acetamide] | 0.0001 to 10 | 0.0001 to 10 |
| Cn1cc(Nc2ncc(-c3ccc(CC(=O)Nc4cccc(C(F)(F)F)n4)cc3)cn2)cn1 [Compound P-0152, 2-[4-[2-[(1-methylpyrazol-4-yl)amino]pyrimidin-5-yl]phenyl]-N-[6-(trifluoromethyl)-2-pyridyl]acetamide] | 0.0001 to 10 | 0.0001 to 10 |
| Cn1cc(Nc2ncc(-c3ccc(CC(=O)Nc4ccnc(S(C)(=O)=O)c4)cc3)cn2)cn1 [Compound P-0154, 2-[4-[2-[(1-methylpyrazol-4-yl)amino]pyrimidin-5-yl]phenyl]-N-(2-methylsulfonyl-4-pyridyl)acetamide] | 0.0001 to 10 | 0.0001 to 10 |
| Cn1cc(Nc2ncc(-c3ccc(CC(=O)Nc4cccc(S(C)(=O)=O)c4)cc3)cn2)cn1 [Compound P-0155, 2-[4-[2-[(1-methylpyrazol-4-yl)amino]pyrimidin-5-yl]phenyl]-N-(3-methylsulfonylphenyl)acetamide] | 0.0001 to 10 | 0.0001 to 10 |
| Cn1cc(Nc2ncc(-c3ccc(CC(=O)Nc4ccc(S(C)(=O)=O)cc4)cc3)cn2)cn1 [Compound P-0156, 2-[4-[2-[(1-methylpyrazol-4-yl)amino]pyrimidin-5-yl]phenyl]-N-(4-methylsulfonylphenyl)acetamide] | 0.0001 to 10 | 0.0001 to 10 |
| Cn1cc(Nc2ncc(-c3ccc(CC(=O)Nc4cccc(OC(F)(F)F)c4)cc3)cn2)cn1 [Compound P-0157, 2-[4-[2-[(1-methylpyrazol-4-yl)amino]pyrimidin-5-yl]phenyl]-N-[3-(trifluoromethoxy)phenyl]acetamide] | 0.0001 to 10 | 0.0001 to 10 |
| Cn1cc(Nc2ncc(-c3ccc(CC(=O)Nc4cccc(C(C)(C)C#N)c4)cc3)cn2)cn1 [Compound P-0158, N-[3-(1-cyano-1-methyl-ethyl)phenyl]-2-[4-[2-[(1-methylpyrazol-4-yl)amino]pyrimidin-5-yl]phenyl]acetamide] | 0.0001 to 10 | 0.0001 to 10 |
| Cn1cc(Nc2ncc(-c3ccc(CC(=O)NCc4ncccc4C(F)(F)F)cc3)cn2)cn1 [Compound P-0159, 2-[4-[2-[(1-methylpyrazol-4-yl)amino]pyrimidin-5-yl]phenyl]-N-[[3-(trifluoromethyl)-2-pyridyl]methyl]acetamide] | 0.0001 to 10 | 0.0001 to 10 |
| COc1ccccc1CNC(=O)Cc1ccc(-c2cnc(Nc3cnn(C)c3)nc2)cc1 [Compound P-0160, N-[(2-methoxyphenyl)methyl]-2-[4-[2-[(1-methylpyrazol-4-yl)amino]pyrimidin-5-yl]phenyl]acetamide] | 0.0001 to 10 | 0.0001 to 10 |
| Cn1cc(Nc2ncc(-c3ccc(CC(=O)NCc4cncc(C(F)(F)F)c4)cc3)cn2)cn1 [Compound P-0161, 2-[4-[2-[(1-methylpyrazol-4-yl)amino]pyrimidin-5-yl]phenyl]-N-[[5-(trifluoromethyl)-3-pyridyl]methyl]acetamide] | 0.0001 to 10 | 0.0001 to 10 |
| Cn1cc(Nc2ncc(-c3ccc(CC(=O)Nc4cc(Cl)c(C5CC5)cn4)cc3)cn2)cn1 [Compound P-0164, N-(4-chloro-5-cyclopropyl-2-pyridyl)-2-[4-[2-[(1-methylpyrazol-4-yl)amino]pyrimidin-5-yl]phenyl]acetamide] | 0.0001 to 10 | 0.0001 to 10 |
